Experimental data published in patent US20160263110A1 (priority 2013, published 2016).
Values joined by “and” are separate entries in the source; they are usually repeats but may differ in a detail not shown here. Identical values can stand only once. “Also recorded” adds a separate entry of the source. Like-named read-outs stand apart in the source and are kept apart here.

How the values were obtained:
ALS mouse model = settings: list of drugs tested in ALS, Zoccolella et al. 2009; cited from earlier work
[1] = list of drugs tested in ALS, Zoccolella et al. 2009; cited from earlier work
ALS patients = settings: list of drugs tested in ALS, Zoccolella et al. 2009; cited from earlier work
[2] = safety data in non-oncology indications; format: in vivo
[3] = system: human cord blood mast cells; settings: cited from earlier work
[4] = system: B6SJL-Tg SOD1G93A female mice; settings: 30 mg/kg/day; from 90 to 120 days
Non-Tg SOD1G93A mice = assay: negative intervention control in Non-Tg SOD1G93A mice; settings: 100 mg/kg/day
SOD1G93A rats = assay: ALS model in SOD1G93A rats: disease onset and survival
[5] = system: B6SJL-Tg SOD1G93A female mice
[6] = system: B6SJL-Tg SOD1G93A female mice; settings: for Age of onse, Averages / Age of deal, Averages: average of 8 mice; for Age of onse, Averages: control average 101.25; for Age of deal, Averages: control average 135

## CC/C(=C(\c1ccccc1)c1ccc(OCCN(C)C)cc1)c1ccccc1 [Tamoxifen]
ALS mouse model
  Mouse model: Overall positive
[1]
  Human Safety: Relatively safe
ALS patients
  Benefits: survival benefit

## Nc1nc2ccc(OC(F)(F)F)cc2s1 [riluzole, 6-(trifluoromethoxy)benzothiazol-2-amine]
ALS patients
  Benefits: Positive transient impact

## Cc1ccc(NC(=O)c2ccc(CN3CCN(C)CC3)cc2)cc1Nc1nc(-c2cccnc2)cs1 [masitinib, 4-(4-methylpiperazin-1-ylmethyl)-N-[4-methyl-3-(4-pyridin-3ylthiazol-2-ylamino)phenyl]benzamide]
[2]; 3 mg/kg/day versus 6 mg/kg/day
  tolerability, difference between doses: no obvious difference
[2]; dosage up to 6 mg/kg/day
  tolerability: well-tolerated
[3]
  FccRI-mediated degranulation of human cord blood mast cells: inhibition
[4]
  weight loss versus Tg Ctrl: reduced weight loss during the first stage of the disease
Non-Tg SOD1G93A mice
  results in Non-Tg animals, masitinib versus water: showed similar results to one another
SOD1G93A rats; 40 mg/kg oral
  survival without paralytic symptoms or weight loss (two rats of the group): 7 months
SOD1G93A rats; 40 mg/kg oral once a day Monday to Friday
  early paralysis and death (two rats of the group): died before week 6
SOD1G93A rats; 40 mg/kg oral, 5 times a week, 3 times a week from week 6, male rats from age 120 days, n=6
  survival compared to control (vehicle): prolonged the survival; also recorded: survived longer
SOD1G93A rats; 40 mg/kg oral, after week 6
  disease onset compared to vehicle: develop the disease later
[5]; 30 mg/kg/day
  hind-limb grip strength curve versus Tg Ctrl: significantly improved the grip strength curve
[5]; 100 mg/kg/day, from 90 to 120 days
  hind-limb grip strength versus Tg Ctrl: improved the grip strength during the first stage of the disease
[6]; 30 mg/kg/day
  median survival compared with positive control group: higher
  Age of onse, Averages: 111.375
  Age of deal, Averages: 139.625
[6]; age of symptoms onset, individual mice, 100 mg/kg/day oral gavage Monday-Friday from 90 days old, 100 mg/kg/day
  Age of onse: 109 (2×) and 111 (5×) and 115
[6]; 100 mg/kg/day
  Age of onse, Averages: 111
  Age of deal, Averages: 132.125
[6]; both doses, 30 or 100 mg/kg/day
  symptoms onset versus positive control: significant delay of symptoms onset
[6]; righting reflex as surrogate for survival
  survival versus positive control: trend to improve survival
